The values that follow come from ChEMBL document CHEMBL4052738, “Design and synthesis of 4-morpholino-6-(1,2,3,6-tetrahydropyridin-4-yl)-N-(3,4,5-trimethoxyphenyl)-1,3,5-triazin-2-amine analogues as tubulin polymerization inhibitors” (Bioorg Med Chem Lett, 2017).

Common to all, as to assay type: functional, cell-based
In one experiment the test system is HepG2. The experiment is described as follows: Antiproliferative activity against human HepG2 cells after 48 hrs by sulforhodamine B assay. The note with it: HepG2, 48 h. On the technique in general: Sulforhodamine B stains cellular protein and so reports cell mass.
The subject of a further experiment is A549. The experiment is described as follows: Antiproliferative activity against human A549 cells after 48 hrs by sulforhodamine B assay. The note with it: A549, 48 h.
A further experiment concerns HeLa. The experiment is described as follows: Antiproliferative activity against human HeLa cells after 48 hrs by sulforhodamine B assay.
For the next experiment, the system named is MCF7. The experiment is described as follows: Antiproliferative activity against human MCF7 cells after 48 hrs by sulforhodamine B assay. The note with it: MCF7, 48 h.

Each structure is given as a SMILES string.

With `COc1cc(Nc2nc(C3=CCN(C(=O)N4CCCC4)CC3)nc(N3CCOCC3)n2)cc(OC)c1OC`, the IC50 with HepG2 came out at 38.8 µM; in the experiment on A549, 43.3 µM; in the experiment on HeLa, 29.4 µM; in the experiment with MCF7 it was 34 µM.

Turning to `COc1cc(Nc2nc(C3=CCN(C(=O)c4cccnc4Cl)CC3)nc(N3CCOCC3)n2)cc(OC)c1OC`, the IC50 with HepG2 amounted to 45 µM; in the experiment with A549, 42.9 µM; in the experiment with HeLa, 41 µM; with MCF7, 30.2 µM.

In the case of `COc1cc(Nc2nc(C3=CCN(C(=O)c4ccncc4)CC3)nc(N3CCOCC3)n2)cc(OC)c1OC`, the IC50 in the experiment with HepG2 amounted to 39.5 µM; with A549, 48.9 µM; with HeLa it was 50.6 µM; with MCF7, 32.1 µM.

With `COc1cc(Nc2nc(C3=CCN(C(=O)Nc4ccc(F)c(F)c4)CC3)nc(N3CCOCC3)n2)cc(OC)c1OC`, the IC50 in the experiment on HepG2 came to 34.5 µM; in the experiment with A549, 51 µM; with HeLa, 30.4 µM; in the experiment with MCF7 it was 30.6 µM.

On to `COc1ccc(/C=C\c2cc(OC)c(OC)c(OC)c2)cc1O` [COMBRETASTATIN A4], for which the IC50 in the experiment on HepG2 was 4.3 µM; in the experiment on A549, 5.3 µM; in the experiment on HeLa, 5.8 µM; in the experiment on MCF7 it was 4.2 µM.

As for `COc1cc(Nc2nc(C3=CCN(S(=O)(=O)c4ccc([N+](=O)[O-])cc4)CC3)nc(N3CCOCC3)n2)cc(OC)c1OC`, the IC50 with HepG2 was determined as 43.2 µM; in the experiment with A549, 34.6 µM; with HeLa it was 32 µM; in the experiment on MCF7, 40.3 µM.

As for `COc1ccc(S(=O)(=O)N2CC=C(c3nc(Nc4cc(OC)c(OC)c(OC)c4)nc(N4CCOCC4)n3)CC2)cc1`, the IC50 in the experiment with HepG2 was found to be 30.6 µM; with A549, 34.9 µM; in the experiment with HeLa it was 47.8 µM; with MCF7 it was 50.3 µM.

For the molecule `COc1cc(Nc2nc(C3=CCN(C(=O)c4ccco4)CC3)nc(N3CCOCC3)n2)cc(OC)c1OC`, the IC50 in the experiment on HepG2 came to 37.1 µM; in the experiment on A549, 51 µM; with HeLa, 45 µM; in the experiment on MCF7, 32 µM.

Turning to `COc1cc(Nc2nc(C3=CCN(C(=O)Nc4ccc(Cl)cc4)CC3)nc(N3CCOCC3)n2)cc(OC)c1OC`, the IC50 worked out at 34.9 µM in the experiment with HepG2, 35.9 µM in the experiment with A549, 30.7 µM with HeLa and 29 µM in the experiment on MCF7.

Take `CCN1CCN(C(=O)N2CC=C(c3nc(Nc4cc(OC)c(OC)c(OC)c4)nc(N4CCOCC4)n3)CC2)CC1`: the IC50 amounted to 45.9 µM in the experiment on HepG2, 43.2 µM in the experiment with A549, 39.5 µM in the experiment with HeLa and 30 µM in the experiment on MCF7.

`COc1cc(Nc2nc(C3=CCN(C(=O)CS)CC3)nc(N3CCOCC3)n2)cc(OC)c1OC`: the IC50 was found to be 32.9 µM in the experiment with HepG2, 43.2 µM with A549, 32.9 µM in the experiment on HeLa and 30.5 µM in the experiment with MCF7.

Take `COc1cc(Nc2nc(C3=CCN(S(=O)(=O)c4ccccc4[N+](=O)[O-])CC3)nc(N3CCOCC3)n2)cc(OC)c1OC`: the IC50 amounted to 51 µM in the experiment on HepG2, 33.5 µM in the experiment with A549, 32 µM with HeLa and 50.5 µM in the experiment on MCF7.

In the case of `COc1cc(Nc2nc(C3=CCN(C(=O)c4cnccn4)CC3)nc(N3CCOCC3)n2)cc(OC)c1OC`, the IC50 with HepG2 was 40 µM; with A549 it was 41.9 µM; with HeLa, 48.3 µM; in the experiment on MCF7, 39.4 µM.

Consider `COc1cc(Nc2nc(C3=CCN(C(=O)CC#N)CC3)nc(N3CCOCC3)n2)cc(OC)c1OC`, for which the IC50 in the experiment with HepG2 came to 29.8 µM; in the experiment on A549, 42 µM; in the experiment with HeLa, 34.2 µM; in the experiment on MCF7, 40.4 µM.

Take `COc1cc(Nc2nc(C3=CCN(S(=O)(=O)c4ccc(F)cc4)CC3)nc(N3CCOCC3)n2)cc(OC)c1OC`: the IC50 worked out at 30 µM with HepG2, 45.6 µM with A549, 50.6 µM in the experiment with HeLa and 29.6 µM in the experiment with MCF7.

In the case of `COc1cc(Nc2nc(C3=CCN(S(=O)(=O)c4ccc(C(C)(C)C)cc4)CC3)nc(N3CCOCC3)n2)cc(OC)c1OC`, the IC50 in the experiment on HepG2 was 48.4 µM; in the experiment with A549, 33.5 µM; in the experiment on HeLa, 50.4 µM; in the experiment on MCF7, 40.4 µM.

As a reminder, the IC50 is the midpoint of a concentration-inhibition curve.
